Data: patent EP0058015A2, “Treatment of infections” (BEECHAM GROUP PLC, priority 1981, dated 1982)
Values joined by “and” are separate entries in the source; they are usually repeats but may differ in a detail not shown here. Equal entries are not always repeated.

How the values were obtained:
[1] = test system: S. aureus; assay: Experimental mouse mastitis: intramammary antibiotic therapy 4 h after S. aureus inoculation, viable bacterial count per gland 18 h later; assay type: in vivo; conditions: for 22 h bacterial counts (log10 cfu/gland) (18 h after treatment), x̄: group mean of five mice; for 22 h bacterial counts (log10 cfu/gland) (18 h after treatment): individual mice, intramammary, 4 h after infection
Experimental: Lactating mice of the Compton white strain were used 4-7 days after parturition. The mice were anaesthetised with ether and c.10^6 cfu S. aureus were inoculated via the teat into the fourth mammary gland on each side (R4 and L4) by the method described by Anderson [Zentralblatt fur Bakteriologie, Parasitenkunde, Infektionskrankheiten und Hygiene (Abteilung 1) Suppl. 5 783-790].
4 Hours later, the mice were divided into four groups and each group received inoculations into R4 and L4 of either cloxacillin, rifampicin, cloxacillin and rifampicin, or saline. After a further 18 hours, the mice were killed. From each mouse, L4 was removed and homogenised in a Griffith's tube with 5 ml sterile saline, and a total viable bacterial count was determined using ox blood agar plates pretreated with S-lactamase.
The log10 bacterial viable counts per gland found after antibiotic (or saline) therapy in each experiment were examined by analysis of variance. Differences between each pair of treatments were then compared for significance in Student's 't' tests, using the value of the.mean square for error obtained in the analysis of variance. Antibiotic residues. Each gland homogenate was also assayed for antibiotic content using an agar well diffusion method with penassay seed agar (Antibiotic medium 1, Difco Labs., Detroit) and Sarcina lutea as the test organism.
Similar treatment to that described above was carried out on mice, in which cloxacillin was replaced by flucloxacillin.
Antibiotics inoculated into mammary glands 4 h after infection at a dose of 1 mg cloxacillin or […] rifampici per gland, or both.

[2] = test system: staphylococcal mastitis infections; assay: Bovine mastitis: intramammary infusion in lactating cows, clinical and bacteriological response at 4 and 7 days after treatment; assay type: in vivo, staphylococci
Experimental: Twenty one staphylococcal mastitis infections were treated as follows:
Ten infections treated with 3 x 12 hr infusions of a combination of 300 mg Rifampicin and 200 mg Cloxacillin.
Eleven infections treated with 3 x 12 hr infusions of 200 mg Cloxacillin.
The treatment was carried out by intramammary infusion in lactating cows, and the clinical and bacteriological response recorded at 4 and 7 days after treatment.

[3] = test system: bovine mastitis; conditions: recent reports (Poutrel 1978; Postle et al. 1979); cited from earlier work
[4] = lactating cows, 3 x 12 hr infusions of 300 mg Rifampicin and 200 mg Cloxacillin, or of 200 mg Cloxacillin

Cc1onc(-c2ccccc2Cl)c1C(=O)N[C@@H]1C(=O)N2[C@@H]1SC(C)(C)[C@@H]2C(=O)O [Cloxacillin, cloxacillin]
mean viable bacterial counts per gland, comparison between groups ([1]; M60 S. aureus, cloxacillin/rifampicin experiment, 1 mg cloxacillin or rifampici per gland, or both, 18 h after therapy, P<0.01): reduced bacterial counts to a significantly greater extend than rifampicin treatment
quarters with raised cell counts ([2]; four days after treatment, eight out of eleven raised before): five
quarters yielding staphylococci ([2]; four days after treatment, eleven infections treated): five
Proportion of quarters cured four days after treatment [2, 4]: 6 out of 11
Proportion of quarters cured seven days after treatment [2, 4]: 5 out of 11
quarters yielding staphylococci ([2]; seven days after treatment, combination ten quarters, cloxacillin alone eleven): six

CO[C@H]1/C=C/O[C@@]2(C)Oc3c(C)c(O)c4c(O)c(c(/C=N/N5CCN(C)CC5)c(O)c4c3C2=O)NC(=O)/C(C)=C\C=C\[C@H](C)[C@H](O)[C@@H](C)[C@@H](O)[C@@H](C)[C@H](OC(C)=O)[C@@H]1C [Rifampicin, rifampicin]
22 h bacterial counts (log10 cfu/gland) (18 h after treatment), x̄ ([1]; Rifampicin 25 µg per gland): 4.837 log10 cfu/gland
22 h bacterial counts (log10 cfu/gland) (18 h after treatment) ([1]; Rifampicin 25 µg per gland): 5.694 log10 cfu/gland and 4.581 log10 cfu/gland and 5.536 log10 cfu/gland and 4.258 log10 cfu/gland and 4.118 log10 cfu/gland

CO[C@H]1/C=C/O[C@@]2(C)Oc3c(C)c([O-])c4c(O)c(cc(O)c4c3C2=O)NC(=O)/C(C)=C\C=C\[C@H](C)[C@H](O)[C@@H](C)[C@@H](O)[C@@H](C)[C@H](OC(C)=O)[C@@H]1C.[Na+] [rifamycin-S.V.]
effectiveness of therapy in bovine mastitis [3]: less effective than penicillin based preparations

Cc1onc(-c2c(F)cccc2Cl)c1C(=O)N[C@@H]1C(=O)N2[C@@H]1SC(C)(C)[C@@H]2C(=O)O [Fluclox, flucloxacillin]
22 h bacterial counts (log10 cfu/gland) (18 h after treatment), x̄ ([1]; Fluclox 1 mg per gland): 4.403 log10 cfu/gland
22 h bacterial counts (log10 cfu/gland) (18 h after treatment) ([1]; Fluclox 1 mg per gland): 4.243 log10 cfu/gland and 4.796 log10 cfu/gland and 4.158 log10 cfu/gland and 4.340 log10 cfu/gland and 4.477 log10 cfu/gland
